Test results taken from ChEMBL document CHEMBL5137043, “trans, trans-2-C-Aryl-3,4-dihydroxypyrrolidines as potent and selective β-glucosidase inhibitors: Pharmacological chaperones for Gaucher disease” (Eur J Med Chem, 2022).

Legend:
[1] = target: T1, Tissue alpha-L-fucosidase (Bos taurus) (UniProt Q2KIM0); test: Inhibition of bovine kidney alpha-L-fucosidase assessed as reduction of p-nitrophenol release using p-nitrophenyl-glycoside as substrate at 1000 uM by spectrophotometric analysis; type: tissue-based
T1 sequence (whole entry): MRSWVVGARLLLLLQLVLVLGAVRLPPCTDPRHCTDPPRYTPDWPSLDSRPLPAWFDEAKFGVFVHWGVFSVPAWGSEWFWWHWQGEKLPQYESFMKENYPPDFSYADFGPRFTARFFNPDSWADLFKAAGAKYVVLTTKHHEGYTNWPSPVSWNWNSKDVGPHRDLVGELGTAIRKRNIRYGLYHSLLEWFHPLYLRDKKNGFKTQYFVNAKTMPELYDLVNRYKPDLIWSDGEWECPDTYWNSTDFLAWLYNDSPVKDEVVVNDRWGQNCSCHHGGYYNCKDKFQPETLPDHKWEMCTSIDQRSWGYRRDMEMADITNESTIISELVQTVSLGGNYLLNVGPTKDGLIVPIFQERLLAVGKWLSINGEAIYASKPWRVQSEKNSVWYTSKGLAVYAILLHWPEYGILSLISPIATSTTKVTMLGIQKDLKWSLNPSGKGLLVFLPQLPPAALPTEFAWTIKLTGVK

Sus scrofa = species: Sus scrofa; test: Inhibition of porcine kidney alpha-trehalase assessed as reduction of p-nitrophenol release using p-nitrophenyl-glycoside as substrate at 1000 uM by spectrophotometric analysis; type: tissue-based
Aspergillus niger = test: Inhibition of Aspergillus niger amyloglucosidase assessed as reduction of p-nitrophenol release using p-nitrophenyl-glycoside as substrate at 1000 uM by spectrophotometric analysis
[2] = target: Lysosomal alpha-glucosidase (Rattus norvegicus) (UniProt Q6P7A9); test: Inhibition of rat small intestinal maltase assessed as reduction of D-glucose release using maltose as substrate at 1000 uM by colorimetric analysis; type: tissue-based; conditions: Small intestine
Bos taurus [3] = species: Bos taurus; test: Inhibition of bovine liver beta-glucuronidase assessed as reduction of p-nitrophenol release using p-nitrophenyl-glycoside as substrate at 1000 uM by spectrophotometric analysis
Penicillium decumbens = test: Inhibition of Penicillium decumbens alpha-L-rhamnosidase assessed as reduction of p-nitrophenol release using p-nitrophenyl-glycoside as substrate at 1000 uM by spectrophotometric analysis
Prunus dulcis = test: Inhibition of almond beta-glucosidase assessed as reduction of p-nitrophenol release using p-nitrophenyl-glycoside as substrate at 1000 uM by spectrophotometric analysis
[4] = Inhibition of rice alpha-glucosidase assessed as reduction of p-nitrophenol release using p-nitrophenyl-glycoside as substrate by spectrophotometric analysis; parameters: species or system Oryza sativa
[5] = target: Lysosomal alpha-glucosidase (Homo sapiens) (UniProt P10253); test: Inhibition of human lysosomal alpha-glucosidase assessed as reduction of p-nitrophenol release using p-nitrophenyl-glycoside as substrate at 1000 uM by spectrophotometric analysis; conditions: Lysosome
[6] = Inhibition of human lysosomal beta-glucosidase assessed as reduction of p-nitrophenol release using p-nitrophenyl-glycoside as substrate by spectrophotometric analysis; type: subcellular, Lysosome
[7] = Inhibition of bovine liver beta-galactosidase assessed as reduction of p-nitrophenol release using p-nitrophenyl-glycoside as substrate by spectrophotometric analysis; parameters: species or system Bos taurus
Escherichia coli = test: Inhibition of Escherichia coli beta-glucuronidase assessed as reduction of p-nitrophenol release using p-nitrophenyl-glycoside as substrate at 1000 uM by spectrophotometric analysis
Saccharomyces cerevisiae = test: Inhibition of yeast alpha-glucosidase assessed as reduction of p-nitrophenol release using p-nitrophenyl-glycoside as substrate at 1000 uM by spectrophotometric analysis
Helix pomatia = test: Inhibition of snail beta-mannosidase assessed as reduction of p-nitrophenol release using p-nitrophenyl-glycoside as substrate at 1000 uM by spectrophotometric analysis
[8] = target: Alpha-galactosidase (Coffea arabica) (UniProt Q42656); test: Inhibition of coffee beans alpha-galactosidase assessed as reduction of p-nitrophenol release using p-nitrophenyl-glycoside as substrate at 1000 uM by spectrophotometric analysis
Bos taurus [9] = species: Bos taurus; test: Inhibition of bovine liver beta-glucosidase assessed as reduction of p-nitrophenol release using p-nitrophenyl-glycoside as substrate at 1000 uM by spectrophotometric analysis
[10] = target: Sucrase-isomaltase, intestinal (Rattus norvegicus) (UniProt P23739); test: Inhibition of rat small intestinal sucrase assessed as reduction of p-nitrophenol release using p-nitrophenyl-glycoside as substrate at 1000 uM by spectrophotometric analysis; type: tissue-based; conditions: Small intestine
[11] = target: T2, Alpha-mannosidase (Canavalia ensiformis) (UniProt C0HJB3); test: Inhibition of jack bean alpha-mannosidase assessed as reduction of p-nitrophenol release using p-nitrophenyl-glycoside as substrate at 1000 uM by spectrophotometric analysis
T2 sequence (whole entry): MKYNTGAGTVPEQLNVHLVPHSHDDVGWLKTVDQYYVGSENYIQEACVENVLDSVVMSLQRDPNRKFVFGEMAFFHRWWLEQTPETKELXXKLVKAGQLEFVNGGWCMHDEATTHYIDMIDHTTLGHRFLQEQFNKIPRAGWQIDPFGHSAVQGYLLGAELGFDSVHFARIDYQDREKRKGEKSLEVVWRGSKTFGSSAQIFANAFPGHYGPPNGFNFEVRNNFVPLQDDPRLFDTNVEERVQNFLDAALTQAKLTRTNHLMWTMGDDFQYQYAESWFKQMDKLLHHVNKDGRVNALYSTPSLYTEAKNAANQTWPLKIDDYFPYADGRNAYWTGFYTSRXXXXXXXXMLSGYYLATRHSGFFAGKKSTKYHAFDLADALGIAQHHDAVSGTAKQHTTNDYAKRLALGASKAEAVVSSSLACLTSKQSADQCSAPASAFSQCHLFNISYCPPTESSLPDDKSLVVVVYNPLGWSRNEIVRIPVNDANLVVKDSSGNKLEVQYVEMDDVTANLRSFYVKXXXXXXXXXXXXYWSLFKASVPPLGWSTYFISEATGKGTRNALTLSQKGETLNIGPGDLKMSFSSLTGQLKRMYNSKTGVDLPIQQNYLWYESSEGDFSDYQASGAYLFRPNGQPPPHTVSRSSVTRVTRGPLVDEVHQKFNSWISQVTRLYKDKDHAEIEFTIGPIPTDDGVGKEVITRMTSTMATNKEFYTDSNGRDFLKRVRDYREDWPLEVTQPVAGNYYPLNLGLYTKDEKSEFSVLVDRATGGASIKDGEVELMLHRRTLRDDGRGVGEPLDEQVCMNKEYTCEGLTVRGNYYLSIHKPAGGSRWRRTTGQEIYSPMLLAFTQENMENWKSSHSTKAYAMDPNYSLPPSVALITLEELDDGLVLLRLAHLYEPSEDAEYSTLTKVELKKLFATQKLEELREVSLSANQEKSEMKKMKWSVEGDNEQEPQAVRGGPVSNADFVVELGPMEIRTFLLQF

[12] = Inhibition of yeast alpha-glucosidase assessed as reduction of p-nitrophenol release using p-nitrophenyl-glycoside as substrate by spectrophotometric analysis; parameters: species or system Saccharomyces cerevisiae
Bos taurus [13] = species: Bos taurus; test: Inhibition of bovine liver beta-galactosidase assessed as reduction of p-nitrophenol release using p-nitrophenyl-glycoside as substrate at 1000 uM by spectrophotometric analysis
[14] = Inhibition of Aspergillus niger amyloglucosidase assessed as reduction of p-nitrophenol release using p-nitrophenyl-glycoside as substrate by spectrophotometric analysis
[15] = Inhibition of almond beta-glucosidase assessed as reduction of p-nitrophenol release using p-nitrophenyl-glycoside as substrate by spectrophotometric analysis; parameters: species or system Prunus dulcis
[16] = Inhibition of porcine kidney alpha-trehalase assessed as reduction of p-nitrophenol release using p-nitrophenyl-glycoside as substrate by spectrophotometric analysis; type: tissue-based, Sus scrofa
Homo sapiens = species: Homo sapiens; test: Inhibition of human lysosomal beta-glucosidase assessed as reduction of p-nitrophenol release using p-nitrophenyl-glycoside as substrate at 1000 uM by spectrophotometric analysis; type: subcellular; conditions: Lysosome
Oryza sativa = test: Inhibition of rice alpha-glucosidase assessed as reduction of p-nitrophenol release using p-nitrophenyl-glycoside as substrate at 1000 uM by spectrophotometric analysis
[17] = Inhibition of Escherichia coli beta-glucuronidase assessed as reduction of p-nitrophenol release using p-nitrophenyl-glycoside as substrate by spectrophotometric analysis
[18] = target: T3, Lysosomal acid glucosylceramidase (Homo sapiens, UniProt P04062); test: Inhibition of human GCase assessed as reduction of 4-methylumbelliferone liberation using 4-methylumbelliferyl-beta-glucopyranoside as substrate preincubated with enzyme for 10 mins followed by substrate addition by fluorescence spectrophotometry
T3 sequence (P04062 whole entry): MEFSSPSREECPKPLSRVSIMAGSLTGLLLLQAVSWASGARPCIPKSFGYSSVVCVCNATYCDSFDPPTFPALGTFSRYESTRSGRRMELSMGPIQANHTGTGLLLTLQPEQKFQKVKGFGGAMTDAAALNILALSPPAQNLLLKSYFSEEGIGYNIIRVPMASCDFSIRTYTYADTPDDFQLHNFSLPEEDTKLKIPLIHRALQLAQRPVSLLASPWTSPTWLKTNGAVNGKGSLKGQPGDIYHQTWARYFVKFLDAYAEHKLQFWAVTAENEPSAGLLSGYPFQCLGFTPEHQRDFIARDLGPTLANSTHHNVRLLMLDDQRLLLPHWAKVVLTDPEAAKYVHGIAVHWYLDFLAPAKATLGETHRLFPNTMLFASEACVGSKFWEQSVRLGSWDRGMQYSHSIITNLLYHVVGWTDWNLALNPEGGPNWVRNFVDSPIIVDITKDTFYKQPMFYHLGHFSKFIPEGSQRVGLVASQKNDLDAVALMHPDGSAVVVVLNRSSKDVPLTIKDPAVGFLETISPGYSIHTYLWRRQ

[19] = target: Sucrase-isomaltase, intestinal (Rattus norvegicus, UniProt P23739); test: Inhibition of rat small intestinal sucrase assessed as reduction of p-nitrophenol release using p-nitrophenyl-glycoside as substrate by spectrophotometric analysis; type: tissue-based, Small intestine
[20] = Inhibition of Penicillium decumbens alpha-L-rhamnosidase assessed as reduction of p-nitrophenol release using p-nitrophenyl-glycoside as substrate by spectrophotometric analysis
[21] = Inhibition of bovine liver beta-glucosidase assessed as reduction of p-nitrophenol release using p-nitrophenyl-glycoside as substrate by spectrophotometric analysis; type: tissue-based, Bos taurus

Chain of Lysosomal alpha-glucosidase (Rattus norvegicus) (Q6P7A9 whole entry): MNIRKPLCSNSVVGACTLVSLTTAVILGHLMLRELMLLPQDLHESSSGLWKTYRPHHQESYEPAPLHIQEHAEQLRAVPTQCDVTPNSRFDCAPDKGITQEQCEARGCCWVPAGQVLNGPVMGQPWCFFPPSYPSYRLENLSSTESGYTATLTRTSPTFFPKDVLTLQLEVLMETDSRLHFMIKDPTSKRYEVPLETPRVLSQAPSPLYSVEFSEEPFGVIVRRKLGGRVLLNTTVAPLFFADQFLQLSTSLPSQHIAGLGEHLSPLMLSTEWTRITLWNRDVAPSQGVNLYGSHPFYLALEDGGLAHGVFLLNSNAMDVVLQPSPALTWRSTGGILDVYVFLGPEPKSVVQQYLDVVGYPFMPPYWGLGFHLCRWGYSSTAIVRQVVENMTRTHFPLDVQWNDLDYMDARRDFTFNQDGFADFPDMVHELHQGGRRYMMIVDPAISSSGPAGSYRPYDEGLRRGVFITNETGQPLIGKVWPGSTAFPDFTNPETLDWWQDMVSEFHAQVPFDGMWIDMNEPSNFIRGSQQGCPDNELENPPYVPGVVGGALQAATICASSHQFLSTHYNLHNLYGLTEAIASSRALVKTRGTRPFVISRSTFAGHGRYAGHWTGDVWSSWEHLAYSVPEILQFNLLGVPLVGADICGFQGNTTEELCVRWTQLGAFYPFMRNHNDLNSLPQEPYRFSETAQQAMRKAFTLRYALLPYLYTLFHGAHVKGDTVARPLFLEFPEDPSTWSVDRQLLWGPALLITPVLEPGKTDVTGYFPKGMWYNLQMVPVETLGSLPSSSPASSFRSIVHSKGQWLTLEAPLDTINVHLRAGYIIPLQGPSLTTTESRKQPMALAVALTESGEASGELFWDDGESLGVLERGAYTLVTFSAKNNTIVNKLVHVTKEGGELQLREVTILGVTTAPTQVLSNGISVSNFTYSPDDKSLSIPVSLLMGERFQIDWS
Chain of Alpha-galactosidase (Coffea arabica) (Q42656 16-378 limits assumed): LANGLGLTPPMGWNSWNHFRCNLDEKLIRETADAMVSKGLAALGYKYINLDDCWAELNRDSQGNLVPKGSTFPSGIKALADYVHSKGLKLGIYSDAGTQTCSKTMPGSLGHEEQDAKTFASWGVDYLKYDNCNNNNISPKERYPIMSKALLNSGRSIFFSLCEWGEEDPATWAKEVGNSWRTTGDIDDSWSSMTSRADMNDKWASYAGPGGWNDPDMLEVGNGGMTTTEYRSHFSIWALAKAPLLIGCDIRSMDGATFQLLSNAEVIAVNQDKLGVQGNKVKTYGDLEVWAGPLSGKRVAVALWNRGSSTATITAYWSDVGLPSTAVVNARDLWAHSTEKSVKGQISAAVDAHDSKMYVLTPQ
Chain of Sucrase-isomaltase, intestinal (P23739 1-1013 limits assumed): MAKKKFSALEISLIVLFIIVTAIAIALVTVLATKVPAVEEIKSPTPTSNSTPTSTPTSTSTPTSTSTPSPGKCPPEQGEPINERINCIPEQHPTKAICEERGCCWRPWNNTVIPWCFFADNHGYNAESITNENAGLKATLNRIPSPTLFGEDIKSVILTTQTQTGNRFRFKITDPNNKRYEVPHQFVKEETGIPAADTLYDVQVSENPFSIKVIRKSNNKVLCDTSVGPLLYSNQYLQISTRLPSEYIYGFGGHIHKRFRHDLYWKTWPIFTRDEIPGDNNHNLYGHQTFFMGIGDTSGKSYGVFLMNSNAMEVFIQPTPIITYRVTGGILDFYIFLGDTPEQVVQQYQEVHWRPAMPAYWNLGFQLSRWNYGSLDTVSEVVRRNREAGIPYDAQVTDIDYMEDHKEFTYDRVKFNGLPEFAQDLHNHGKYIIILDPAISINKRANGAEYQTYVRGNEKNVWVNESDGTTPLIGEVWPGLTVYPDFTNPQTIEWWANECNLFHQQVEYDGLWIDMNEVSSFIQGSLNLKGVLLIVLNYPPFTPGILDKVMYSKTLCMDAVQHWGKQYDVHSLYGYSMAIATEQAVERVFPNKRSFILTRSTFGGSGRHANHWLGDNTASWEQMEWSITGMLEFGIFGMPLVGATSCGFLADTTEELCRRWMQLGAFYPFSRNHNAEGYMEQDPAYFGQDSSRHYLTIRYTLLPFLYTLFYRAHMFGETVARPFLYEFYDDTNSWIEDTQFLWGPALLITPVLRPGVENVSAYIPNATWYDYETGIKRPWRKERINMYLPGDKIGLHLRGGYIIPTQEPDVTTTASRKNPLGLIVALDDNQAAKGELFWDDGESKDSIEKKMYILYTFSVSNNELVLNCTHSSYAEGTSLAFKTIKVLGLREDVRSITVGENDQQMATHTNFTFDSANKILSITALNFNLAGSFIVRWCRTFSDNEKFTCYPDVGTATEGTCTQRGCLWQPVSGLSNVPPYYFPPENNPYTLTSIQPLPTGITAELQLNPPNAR
Chain of Sucrase-isomaltase, intestinal (P23739 1014-1841 limits assumed): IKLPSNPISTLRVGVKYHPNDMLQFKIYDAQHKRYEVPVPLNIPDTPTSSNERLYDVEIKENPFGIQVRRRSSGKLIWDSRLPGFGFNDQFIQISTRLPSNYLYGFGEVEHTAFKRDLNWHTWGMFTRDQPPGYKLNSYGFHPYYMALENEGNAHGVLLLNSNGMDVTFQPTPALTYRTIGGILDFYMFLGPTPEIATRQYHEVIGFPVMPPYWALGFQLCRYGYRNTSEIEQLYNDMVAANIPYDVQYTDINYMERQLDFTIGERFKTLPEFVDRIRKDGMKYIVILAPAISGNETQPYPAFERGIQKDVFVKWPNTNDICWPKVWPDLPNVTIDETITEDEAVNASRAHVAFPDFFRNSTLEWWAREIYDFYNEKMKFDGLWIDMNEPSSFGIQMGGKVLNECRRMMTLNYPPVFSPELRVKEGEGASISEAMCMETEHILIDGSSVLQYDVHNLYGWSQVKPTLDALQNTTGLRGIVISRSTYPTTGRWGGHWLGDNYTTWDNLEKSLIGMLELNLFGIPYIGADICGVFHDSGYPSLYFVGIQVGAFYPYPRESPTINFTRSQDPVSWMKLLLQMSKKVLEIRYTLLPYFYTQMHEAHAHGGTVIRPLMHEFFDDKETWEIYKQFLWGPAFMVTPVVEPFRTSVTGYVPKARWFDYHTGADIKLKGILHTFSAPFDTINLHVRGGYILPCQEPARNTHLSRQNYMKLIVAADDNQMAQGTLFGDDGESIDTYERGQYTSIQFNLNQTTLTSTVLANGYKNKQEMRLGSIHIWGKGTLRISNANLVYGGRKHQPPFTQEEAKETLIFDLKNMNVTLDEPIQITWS
Chain of Sucrase-isomaltase, intestinal (Rattus norvegicus) (P23739 1-1013 limits assumed): as the sequence (P23739 1-1013 limits assumed) above
Chain of Sucrase-isomaltase, intestinal (Rattus norvegicus) (P23739 1014-1841 limits assumed): as the sequence (P23739 1014-1841 limits assumed) above

Row | inhibition [1] | inhibition (Sus scrofa) | inhibition (Aspergillus niger) | inhibition [2] | inhibition (Bos taurus [3]) | inhibition (Penicillium decumbens) | inhibition (Prunus dulcis) | IC50 [4] | inhibition [5] | IC50 [6] | IC50 [7] | inhibition (Escherichia coli) | inhibition (Saccharomyces cerevisiae) | inhibition (Helix pomatia) | inhibition [8] | inhibition (Bos taurus [9]) | inhibition [11] | IC50 [15] | inhibition (Oryza sativa) | Compound | further results
1 | 0% | 6.1% | 2% | 12.4% | 15% | 0.5% | 3.9% | 466 µM | 29% | 11 µM | 441 µM | 20.3% | 0.3% | 10.1% | 8.6% | 43.7% | 8.3% | – | – | O[C@H]1[C@H](O)CN[C@@H]1c1ccccc1 | inhibition [10]: 39.9%
2 | 0% | 13.1% | 0% | 15.8% | 2.3% | 0% | – | – | 2.9% | 0.76 µM | 328 µM | – | 10.1% | 9.7% | 0% | 39.9% | 0% | 285 µM | 19% | O[C@H]1[C@H](O)CN[C@@H]1c1ccc(-c2ccccc2)cc1 | IC50 [17]: 281 µM; inhibition [10]: 47.4%
3 | 0% | 0% | 0% | – | 0.3% | – | 48.8% | – | 27.8% | 9.5 µM | 665 µM | 42.7% | 30% | 5.2% | 0% | 35% | 11.5% | – | 42.9% | O[C@H]1[C@H](CCCc2ccccc2)NC[C@@H]1O | IC50 [19]: 178 µM; IC50 [20]: 131 µM
4 | 0% | 1.6% | 0% | 28.8% | 4.2% | 6.4% | – | – | 15.6% | 1.2 µM | 83 µM | – | 4.7% | 14.9% | 0.3% | – | 0% | 234 µM | 10.3% | O[C@@H]1[C@@H](O)CN[C@H]1c1ccc(-c2ccccc2)cc1 | IC50 [19]: 580 µM; IC50 [17]: 418 µM; IC50 [21]: 458 µM

More lines, now with the values behind:

Row | Compound | inhibition [1] | inhibition (Sus scrofa) | inhibition (Aspergillus niger) | inhibition [2] | inhibition (Bos taurus [3]) | inhibition (Penicillium decumbens) | inhibition (Prunus dulcis) | IC50 [4] | inhibition [5] | IC50 [6] | IC50 [7] | inhibition (Escherichia coli) | inhibition (Saccharomyces cerevisiae) | inhibition (Helix pomatia) | inhibition [8] | inhibition (Bos taurus [9]) | inhibition [11] | IC50 [15] | inhibition (Oryza sativa) | further results
5 | OC[C@H]1NC[C@@H](O)[C@@H]1O | 9% | – | – | – | 6.3% | 13.5% | – | 87 µM | – | 340 µM | – | 5.3% | – | 13% | 4.1% | 7.9% | – | 967 µM | – | IC50 [12]: 2.5 µM; inhibition (Bos taurus [13]): 11.4%; IC50 [14]: 355 µM; IC50 [16]: 11 µM
6 | OC[C@@H]1NCC(O)C1O (single isomer, unassigned) | 13.3% | – | 25.6% | – | 6.3% | 1.3% | 32.6% | 1.9 µM | – | – | – | 8% | – | 0.5% | 3.9% | 4.6% | 0% | – | – | IC50 [12]: 163 µM; inhibition (Bos taurus [13]): 8.3%; IC50 [16]: 161 µM; inhibition (Homo sapiens): 16.1%
7 | CCCCN1C[C@H](CO)[C@@H](O)[C@H](O)C1 | – | – | – | – | – | – | – | – | – | – | – | – | – | – | – | – | – | – | – | IC50 [18]: 44 µM
